Results: patent publication US20250214977A1, “STAT6 INHIBITORS AND USES THEREOF” (Kymera Therapeutics, Inc., priority 2024, published 2025)

System: Phosphorylation of STAT6 in human A549 cells
Experiment: Phosphorylated STAT6 (pSTAT6) flow cytometry assay in human A549 cells
Assay type: cell-based
Details: read-out: STAT6 IL4 pSTAT6 assay in A549 cells: Average IC50
Description: Example 3. Phosphorylated STAT6 (pSTAT6) Flow Cytometry Assay in Human A549 Cells
Phosphorylation of STAT6 in human A549 cells was quantitatively measured using flow cytometry technology.

| SMILES | IC50 [µM] |
| --- | --- |
| COc1ccncc1-c1cc(C2=CCCN(C(C)=O)C2)c(F)c2[nH]c(C(=O)N3CCN(c4ncc(F)cc4OC)CC3)cc12 [Example I-696] | > 100 |
| COc1cnccc1-c1cc(C2=CCCN(C(C)=O)C2)c(F)c2[nH]c(C(=O)N3CCN(c4ncc(F)cc4OC)CC3)cc12 [Example I-697] | > 100 |
| COc1cccnc1N1CCN(C(=O)c2cc3c(C4CCC5(CCNCC5)CC4)cc(C4=CCCN(C(=O)CCn5ccnn5)C4)c(F)c3[nH]2)CC1 [Example I-698] | 10 to 100 |
| CCc1ccncc1-c1cc(C2=CCCN(C(C)=O)C2)c(F)c2[nH]c(C(=O)N3CCN(c4cc(F)cnc4OC)CC3)cc12 [Example I-699] | 10 to 100 |
| CCc1ccccc1-c1cc(C2=CCCN(C(=O)CCn3ccnn3)C2)c(F)c2[nH]c(C(=O)N3Cc4cnn(C)c4C3)cc12 [Example I-700] | 10 to 100 |
| COc1ccncc1-c1cc(C2=CCCN(C(C)=O)C2)c(F)c2[nH]c(C(=O)N3Cc4cnn(C)c4C3)cc12 [Example I-701] | 10 to 100 |
| CCc1ccncc1-c1cc(C2=CCCN(C(C)=O)C2)c(F)c2[nH]c(C(=O)N3Cc4cnn(C)c4C3)cc12 [Example I-702] | 10 to 100 |
| COc1cc(F)cnc1N1CCN(C(=O)c2cc3c(-c4ccncc4C(C)C)cc(C4=CCCN(C(=O)CCn5ccnn5)C4)c(F)c3[nH]2)CC1 [Example I-703] | 10 to 100 |
| CCc1ccncc1-c1cc(C2=CCCN(C(=O)CCn3ccnn3)C2)c(F)c2[nH]c(C(=O)N3Cc4cnn(C)c4C3)cc12 [Example I-704] | 10 to 100 |
| CCc1cnccc1-c1cc(C2=CCCN(C(C)=O)C2)c(F)c2[nH]c(C(=O)N3Cc4cnn(C)c4C3)cc12 [Example I-705] | 10 to 100 |
| CCc1cnccc1-c1cc(C2=CCCN(C(C)=O)C2)c(F)c2[nH]c(C(=O)N3CCN(c4ncc(F)cc4OC)CC3)cc12 [Example I-706] | 10 to 100 |
| CCc1cc(C)ncc1-c1cc(C2=CCCN(C(=O)CCn3ccnn3)C2)c(F)c2[nH]c(C(=O)N3CCN(c4ncc(F)cc4OC)CC3)cc12 [Example I-707] | 10 to 100 |
| CCc1ccncc1-c1cc(C2=CCCN(C(=O)OC)C2)c(F)c2[nH]c(C(=O)N3CCN(c4ncc(F)cc4OC)CC3)cc12 [Example I-708] | 10 to 100 |
| CCn1ncc2c1CN(C(=O)c1cc3c(-c4ccncc4OC)cc(C4=CCCN(C(C)=O)C4)c(F)c3[nH]1)C2 [Example I-715] | 10 to 100 |
| COc1ncccc1-c1cc(C(=O)N2Cc3cnn(C)c3C2)cc2cc(C3=CCCN(C(=O)CCn4ccnn4)C3)n(CC3CC3)c12 [Example I-717] | 10 to 100 |
| COc1cccnc1N1CCN(C(=O)c2cc3c(-c4cnc(C)c(C)c4OC)cc(C4=CCCN(C(=O)CCn5ccnn5)C4)c(F)c3[nH]2)CC1 [Example I-724] | < 0.1 |
| COc1cc(F)cnc1N1CCN(C(=O)c2cc3c(C4CCN(C)CC4)cc(C4=CCCN(C(=O)CCn5ccnn5)C4)c(F)c3[nH]2)CC1 [Example I-725] | < 0.1 |
| COc1cc(F)cnc1N1CCN(C(=O)c2cc(-c3cccnc3OC)c3c(c2)cc(C2=CCCN(C(=O)CCn4ccnn4)C2)n3CC2CC2)CC1 [Example I-726] | < 0.1 |
| CCc1ccncc1-c1cc(C(=O)N2Cc3cnn(C)c3C2)cc2cc(C3=CCCN(C(=O)CCn4ccnn4)C3)n(CC3CC3)c12 [Example I-727] | < 0.1 |

| SMILES | IC50 [µM] |
| --- | --- |
| COc1cc(F)cnc1N1CCN(C(=O)c2cc(-c3cccnc3C3CC3)c3c(c2)cc(C2=CCCN(C(=O)CCn4ccnn4)C2)n3CC2CC2)CC1 [Example I-728] | > 100 |
| COc1cnccc1-c1cc(C(=O)N2CCN(c3ncc(F)cc3OC)CC2)cc2cc(C3=CCCN(C(=O)CCn4ccnn4)C3)n(CC3CC3)c12 [Example I-729] | < 0.1 |
| CCC1=C(c2cc(C3=CCCN(C(=O)CCn4ccnn4)C3)c(F)c3[nH]c(C(=O)N4CCN(c5ncc(F)cc5OC)CC4)cc23)CN(C)CC1 [Example I-730] | < 0.1 |
| CCC1=C(c2cc(C3=CCCN(C(=O)CCn4ccnn4)C3)c(F)c3[nH]c(C(=O)N4CCN(c5ncc(F)cc5OC)CC4)cc23)CCNC1 [Example I-731] | < 0.1 |
| CCn1c(C2=CCCN(C(=O)CCn3ccnn3)C2)cc2cc(C(=O)N3CCN(c4ncc(F)cc4OC)CC3)cc(-c3ccccc3OC)c21 [Example I-734] | < 0.1 |
| CCc1nc(C)ccc1-c1cc(C2=CCCN(C(=O)CCn3ccnn3)C2)c(F)c2[nH]c(C(=O)N3CCN(c4ncc(F)cc4OC)CC3)cc12 [Example I-735] | < 0.1 |
| COc1ccccc1-c1cc(C(=O)N2Cc3cnn(C)c3C2)cc2cc(C3=CCCN(C(=O)CCn4ccnn4)C3)n(CC3CC3)c12 [Example I-736] | < 0.1 |
| CCc1cc(C)ncc1-c1cc(C2=CCCN(C(=O)CCn3ccnn3)C2)c(F)c2[nH]c(C(=O)N3CCN(c4nc(C)c(F)cc4OC)CC3)cc12 [Example I-737] | < 0.1 |
| CCc1cc(C)ncc1-c1cc(C2=CCCN(C(=O)CCn3cccn3)C2)c(F)c2[nH]c(C(=O)N3CCN(c4nc(C)c(F)cc4OC)CC3)cc12 [Example I-738] | < 0.1 |
| CCc1cc(C)ncc1-c1cc(C2=CCCN(C(=O)CCn3ccnn3)C2)c(F)c2[nH]c(C(=O)N3CCN(c4ccc(F)cc4OC)CC3)cc12 [Example I-739] | < 0.1 |
| COc1cc(F)c(C)nc1N1CCN(C(=O)c2cc3c(-c4cnc(C)cc4C(C)C)cc(C4=CCCN(C(=O)CCn5ccnn5)C4)c(F)c3[nH]2)CC1 [Example I-740] | < 0.1 |
| CCc1cc(CC)c(-c2cc(C3=CCCN(C(=O)CCn4cccn4)C3)c(F)c3[nH]c(C(=O)N4CCN(c5nc(C)c(F)cc5OC)CC4)cc23)cn1 [Example I-741] | 0.1 to 1 |
| CCc1cc(C)ncc1-c1cc(C2=CCCN(C(=O)CCn3ccnn3)C2)c(F)c2[nH]c(C(=O)N3CCN(c4ncc(F)cc4OC)CC3)cc12 [Example I-742] | < 0.1 |
| CCC1=C(c2cc(C3=CCCN(C(=O)CCn4ccnn4)C3)c(F)c3[nH]c(C(=O)N4CCN(c5ncc(F)cc5OC)CC4)cc23)CNCC1 [Example I-743] | < 0.1 |
| CCc1ccc(-c2cc(C3=CCCN(C(=O)CCn4ccnn4)C3)c(F)c3[nH]c(C(=O)N4Cc5cnn(CC)c5C4)cc23)c(C)n1 [Example I-761] | > 100 |
| CCn1ncc2c1CN(C(=O)c1cc3c(-c4ccc(C5CC5)nc4C)cc(C4=CCCN(C(=O)CCn5ccnn5)C4)c(F)c3[nH]1)C2 [Example I-762] | > 100 |
| CCc1cc(C(F)F)ncc1-c1cc(C2=CCCN(C(=O)CCn3ccnn3)C2)c(F)c2[nH]c(C(=O)N3CCN(c4nc(C)c(F)cc4OC)CC3)cc12 [Example I-763] | < 0.1 |
| CCc1nc(C)ncc1-c1cc(C2=CCCN(C(=O)CCn3ccnn3)C2)c(F)c2[nH]c(C(=O)N3Cc4cnn(CC)c4C3)cc12 [Example I-764] | < 0.1 |
| CCn1ncc2c1CN(C(=O)c1cc(C3=CCCCC3)c3c(c1)cc(C1=CCCN(C(=O)CCn4ccnn4)C1)n3CC1CC1)C2 [Example I-765] | < 0.1 |

| SMILES | IC50 [µM] |
| --- | --- |
| CCn1ncc2c1CN(C(=O)c1cc3c(-c4cnc(C5CC5)cc4C)cc(C4=CCCN(C(=O)CCn5ccnn5)C4)c(F)c3[nH]1)C2 [Example I-766] | > 100 |
| CCc1cc(C(F)F)ncc1-c1cc(C2=CCCN(C(=O)CCn3ccnn3)C2)c(F)c2[nH]c(C(=O)N3Cc4cnn(CC)c4C3)cc12 [Example I-767] | > 100 |
| CCn1ncc2c1CN(C(=O)c1cc(C3CC3)c3c(c1)cc(C1=CCCN(C(=O)CCn4ccnn4)C1)n3CC1CC1)C2 [Example I-768] | > 100 |
| COc1ccccc1-c1cc(C2=CCCN(C(=O)CCn3ccnn3)C2)c(F)c2[nH]c(C(=O)N3CCN(c4ccc(F)c(F)c4F)CC3)cc12 [Example I-769] | < 0.1 |
| COc1ccccc1-c1cc(C2=CCCN(C(=O)CCn3ccnn3)C2)c(F)c2[nH]c(C(=O)N3CCN(c4ccc5c(c4)c4ccccc4n5C)CC3)cc12 [Example I-770] | 1 to 10 |
| COc1ccccc1-c1cc(C2=CCCN(C(=O)CCn3ccnn3)C2)c(F)c2[nH]c(C(=O)N3CCN(c4cc(C#N)cc5[nH]ccc45)CC3)cc12 [Example I-771] | < 0.1 |
| COc1ccccc1-c1cc(C2=CCCN(C(=O)CCn3ccnn3)C2)c(F)c2[nH]c(C(=O)NC(C#N)c3ccccc3)cc12 (stereo not drawn) [Example I-772] | > 100 |
| COc1ccccc1-c1cc(C2=CCCN(C(=O)CCn3ccnn3)C2)c(F)c2[nH]c(C(=O)N3CCN(C(C)(C)C)CC3)cc12 [Example I-773] | < 0.1 |
| COc1ccccc1-c1cc(C2=CCCN(C(=O)CCn3ccnn3)C2)c(F)c2[nH]c(C(=O)N3CCN(c4cccnc4)CC3)cc12 [Example I-774] | < 0.1 |
| COc1ccccc1-c1cc(C2=CCCN(C(=O)CCn3ccnn3)C2)c(F)c2[nH]c(C(=O)N3CCN(c4c(C)nn(C)c4C#N)CC3)cc12 [Example I-775] | < 0.1 |
| COc1ccccc1-c1cc(C2=CCCN(C(=O)CCn3ccnn3)C2)c(F)c2[nH]c(C(=O)N3CCN(c4ccsc4C#N)CC3)cc12 [Example I-776] | < 0.1 |
| COc1ccccc1-c1cc(C2=CCCN(C(=O)CCn3ccnn3)C2)c(F)c2[nH]c(C(=O)N3CCN(c4scnc4C)CC3)cc12 [Example I-777] | < 0.1 |
| COc1ccccc1-c1cc(C2=CCCN(C(=O)CCn3ccnn3)C2)c(F)c2[nH]c(C(=O)N3CCN(c4nnn(C)c4C)CC3)cc12 [Example I-778] | < 0.1 |
| COc1ccccc1-c1cc(C2=CCCN(C(=O)CCn3ccnn3)C2)c(F)c2[nH]c(C(=O)N3CCN(c4cc(=O)[nH]cc4F)CC3)cc12 [Example I-779] | < 0.1 |
| COc1cc(F)cnc1N1CCN(C(=O)c2cc3c(C4CCCCN4C)cc(C4=CCCN(C(=O)CCn5ccnn5)C4)c(F)c3[nH]2)CC1 (stereo not drawn) [Example I-780] | < 0.1 |
| CCC1CN(C)CCC1c1cc(C2=CCCN(C(=O)CCn3ccnn3)C2)c(F)c2[nH]c(C(=O)N3CCN(c4ncc(F)cc4OC)CC3)cc12 (stereo not drawn) [Example I-781] | < 0.1 |
| CCC1=C(c2cc(C3=CCCN(C(=O)CCn4ccnn4)C3)c(F)c3[nH]c(C(=O)N4CCN(c5ncc(F)cc5OC)CC4)cc23)CN(C)C1 [Example I-782] | < 0.1 |
| CCN1CCCCC1c1cc(C2=CCCN(C(=O)CCn3ccnn3)C2)c(F)c2[nH]c(C(=O)N3CCN(c4ncc(F)cc4OC)CC3)cc12 (stereo not drawn) [Example I-784] | < 0.1 |
| COc1cc(F)cnc1N1CCN(C(=O)c2cc3c(C4CN(C)C4)cc(C4=CCCN(C(=O)CCn5ccnn5)C4)c(F)c3[nH]2)CC1 [Example I-785] | < 0.1 |
